From patent US10087170B2, “Compound, photosensitive resin composition including the same, and color filter” (SAMSUNG SDI CO., LTD., priority 2016, dated 2018)

Assay: Evaluation 1: Solubility in organic solvents
Format: physicochemical
Conditions: 0.5 g compound, stirred at 25° C. and 100 rpm for 1 hour; for Amount of dissolved compound (wt %) Chloroform: solvent chloroform; for Amount of dissolved compound (wt %) Diacetone alcohol: solvent diacetone alcohol
Description: Solubility Evaluation Reference
X: solubility of less than 1 wt %
∘: solubility of greater than or equal to 1 wt % and less than 5 wt %
⊚: solubility of greater than or equal to 5 wt %

Compound	Amount of dissolved compound (wt %) Chloroform	Amount of dissolved compound (wt %) Diacetone alcohol
CC[N+](CC)=c1ccc2c(-c3ccccc3S(=O)(=O)[O-])c3ccc(N(C)CCCCCCN(C)c4ccc5c(-c6ccccc6S(=O)(=O)[O-])c6ccc(=[N+](CC)CC)cc-6oc5c4)cc3oc-2c1 [Chemical Formula 7]	◯ (solubility of greater than or equal lo 1 wt % and less than 5 wt %)	◯ (solubility of greater than or equal lo 1 wt % and less than 5 wt %)
CCN(CCCCCCN(CC)c1ccc2c(-c3ccccc3S(=O)(=O)[O-])c3ccc(=[N+](CC)CC)cc-3oc2c1)c1ccc2c(-c3ccccc3S(=O)(=O)[O-])c3ccc(=[N+](CC)CC)cc-3oc2c1 [Chemical Formula 8]	◯ (solubility of greater than or equal lo 1 wt % and less than 5 wt %)	◯ (solubility of greater than or equal lo 1 wt % and less than 5 wt %)
CCN(CCOC(=O)NCC1CCCC(CNC(=O)OCCN(CC)c2ccc3c(-c4ccccc4S(=O)(=O)[O-])c4ccc(=[N+](CC)CC)cc-4oc3c2)C1)c1ccc2c(-c3ccccc3S(=O)(=O)[O-])c3ccc(=[N+](CC)CC)cc-3oc2c1 (stereo not drawn) [Chemical Formula 11]	◯ (solubility of greater than or equal lo 1 wt % and less than 5 wt %)	◯ (solubility of greater than or equal lo 1 wt % and less than 5 wt %)
C=C(C)C(=O)OCCNC(=O)OCC[N+](CC)=c1ccc2c(-c3ccccc3S(=O)(=O)[O-])c3ccc(N(CC)CCCCCCN(CC)c4ccc5c(-c6ccccc6S(=O)(=O)[O-])c6ccc(=[N+](CC)CC)cc-6oc5c4)cc3oc-2c1 [Chemical Formula 21]	⊚ (solubility of greater than or equal to 5 wt %)	⊚ (solubility of greater than or equal to 5 wt %)
C=CC(=O)OCC[N+](CC)=c1ccc2c(-c3ccccc3S(=O)(=O)[O-])c3ccc(N(CC)CCCCCCN(CC)c4ccc5c(-c6ccccc6S(=O)(=O)[O-])c6ccc(=[N+](CC)CC)cc-6oc5c4)cc3oc-2c1 [Chemical Formula 19]	⊚ (solubility of greater than or equal to 5 wt %)	⊚ (solubility of greater than or equal to 5 wt %)
C=C(C)C(=O)OCC[N+](CC)=c1ccc2c(-c3ccccc3S(=O)(=O)[O-])c3ccc(N(CC)CCCCCCN(CC)c4ccc5c(-c6ccccc6S(=O)(=O)[O-])c6ccc(=[N+](CC)CCOC(=O)C(=C)C)cc-6oc5c4)cc3oc-2c1 [Chemical Formula 18]	⊚ (solubility of greater than or equal to 5 wt %)	⊚ (solubility of greater than or equal to 5 wt %)
CCN(CC)c1ccc2c(-c3ccccc3S(=O)(=O)[O-])c3ccc(=[N+](CC)CC)cc-3oc2c1 [Chemical Formula X, reference compound]	X (solubility of less than 1 wt %)	X (solubility of less than 1 wt %)
CCN(CCOC(=O)NCCCCCCNC(=O)OCCN(CC)c1ccc2c(-c3ccccc3S(=O)(=O)[O-])c3ccc(=[N+](CC)CC)cc-3oc2c1)c1ccc2c(-c3ccccc3S(=O)(=O)[O-])c3ccc(=[N+](CC)CC)cc-3oc2c1 [Chemical Formula 9]	◯ (solubility of greater than or equal lo 1 wt % and less than 5 wt %)	◯ (solubility of greater than or equal lo 1 wt % and less than 5 wt %)
CCN(CCOC(=O)CCCCCCC(=O)OCCN(CC)c1ccc2c(-c3ccccc3S(=O)(=O)[O-])c3ccc(=[N+](CC)CC)cc-3oc2c1)c1ccc2c(-c3ccccc3S(=O)(=O)[O-])c3ccc(=[N+](CC)CC)cc-3oc2c1 [Chemical Formula 10]	◯ (solubility of greater than or equal lo 1 wt % and less than 5 wt %)	◯ (solubility of greater than or equal lo 1 wt % and less than 5 wt %)
C=C(C)C(=O)OCC[N+](CC)=c1ccc2c(-c3ccccc3S(=O)(=O)[O-])c3ccc(N(CC)CCCCCCN(CC)c4ccc5c(-c6ccccc6S(=O)(=O)[O-])c6ccc(=[N+](CC)CC)cc-6oc5c4)cc3oc-2c1 [Chemical Formula 20]	⊚ (solubility of greater than or equal to 5 wt %)	⊚ (solubility of greater than or equal to 5 wt %)
C=C(C)C(=O)OCCNC(=O)OCC[N+](CC)=c1ccc2c(-c3ccccc3S(=O)(=O)[O-])c3ccc(N(C)CCCCCCN(C)c4ccc5c(-c6ccccc6S(=O)(=O)[O-])c6ccc(=[N+](CC)CCOC(=O)NCCOC(=O)C(=C)C)cc-6oc5c4)cc3oc-2c1 [Chemical Formula 13]	⊚ (solubility of greater than or equal to 5 wt %)	⊚ (solubility of greater than or equal to 5 wt %)
CCN(CCOC(=O)NC1CCC(CC2CCC(NC(=O)OCCN(CC)c3ccc4c(-c5ccccc5S(=O)(=O)[O-])c5ccc(=[N+](CC)CC)cc-5oc4c3)CC2)CC1)c1ccc2c(-c3ccccc3S(=O)(=O)[O-])c3ccc(=[N+](CC)CC)cc-3oc2c1 (stereo not drawn) [Chemical Formula 16]	◯ (solubility of greater than or equal lo 1 wt % and less than 5 wt %)	◯ (solubility of greater than or equal lo 1 wt % and less than 5 wt %)
C=CC(=O)OCC[N+](CC)=c1ccc2c(-c3ccccc3S(=O)(=O)[O-])c3ccc(N(CC)CCCCCCN(CC)c4ccc5c(-c6ccccc6S(=O)(=O)[O-])c6ccc(=[N+](CC)CCOC(=O)C=C)cc-6oc5c4)cc3oc-2c1 [Chemical Formula 17]	⊚ (solubility of greater than or equal to 5 wt %)	⊚ (solubility of greater than or equal to 5 wt %)
C=C(C)C(=O)OCCNC(=O)OCC[N+](CC)=c1ccc2c(-c3ccccc3S(=O)(=O)[O-])c3ccc(N(CC)CCCCCCN(CC)c4ccc5c(-c6ccccc6S(=O)(=O)[O-])c6ccc(=[N+](CC)CCOC(=O)NCCOC(=O)C(=C)C)cc-6oc5c4)cc3oc-2c1 [Chemical Formula 14]	⊚ (solubility of greater than or equal to 5 wt %)	⊚ (solubility of greater than or equal to 5 wt %)
CC[N+](CC)=c1ccc2c(-c3ccccc3S(=O)(=O)[N-]S(=O)(=O)C(F)(F)F)c3ccc(N(C)CCCCCCN(C)c4ccc5c(-c6ccccc6S(=O)(=O)[N-]S(=O)(=O)C(F)(F)F)c6ccc(=[N+](CC)CC)cc-6oc5c4)cc3oc-2c1 [Chemical Formula 12]	◯ (solubility of greater than or equal lo 1 wt % and less than 5 wt %)	◯ (solubility of greater than or equal lo 1 wt % and less than 5 wt %)
